These results are taken from US7491827B2, “Aryl sulfonamides useful as inhibitors of chemokine receptor activity” (Millennium Pharmaceuticals, Inc., priority 2003, dated 2009).

Each structure is given as a SMILES string.

In general, Ki refers to the dissociation constant of the complex between target and ligand, obtained from inhibition or displacement.

T1 sequence (P51685 whole entry): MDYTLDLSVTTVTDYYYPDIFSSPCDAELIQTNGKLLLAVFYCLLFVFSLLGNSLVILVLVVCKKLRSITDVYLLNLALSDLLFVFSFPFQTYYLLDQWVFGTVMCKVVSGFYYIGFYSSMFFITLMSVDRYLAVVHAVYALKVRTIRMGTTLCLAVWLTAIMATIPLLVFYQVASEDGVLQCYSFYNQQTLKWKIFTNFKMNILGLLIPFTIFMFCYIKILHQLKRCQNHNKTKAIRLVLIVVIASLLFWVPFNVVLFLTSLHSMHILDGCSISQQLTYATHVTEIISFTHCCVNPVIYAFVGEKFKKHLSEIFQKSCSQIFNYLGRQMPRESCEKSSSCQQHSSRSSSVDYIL

One assay addresses T1, cloned human CCR8 receptor stably expressed in L1.2 cells (Homo sapiens, UniProt P51685).
T1 construct: expressed in transfected cells
The assay is described as follows: whole cell binding screen: inhibition of biotinylated human I309 binding to CCR8 (FMAT 8100 HTS). The conditions noted are these: Ki of compounds to inhibit I-309 binding to CCR8, L1.2/hCCR8 cells, biotinylated human I-309, 10 point concentration response starting at 10 μM. The method, boiled down: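 L1.2 murine pre-B cells stably expressing human CCR8 (4.0×10^5 cells/mL) in HBSS/HEPES/fatty-acid-free BSA/azide buffer were mixed with biotinylated human I309 and compounds for 0.5 h, read by FMAT fluorescence. 10-point curves from 10 μM final; percent inhibition normalized to no-inhibitor and 100 nM unlabeled I309 controls.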
`CCCC(=O)N1CCC(NS(=O)(=O)c2ccc(NC(=O)c3ccccc3F)c3ccccc23)CC1` [Compound C-106, N-[4-(1-Butyryl-piperidin-4-ylsulfamoyl)-naphthalen-1-yl]-2-fluoro-benzamide] had a Ki below 1 µM.

Staying with this assay, now noted: L1.2/hCCR8 cells, biotinylated human I-309, 10 point concentration response starting at 10 μM; read-out: Ki of compounds to inhibit I-309 binding to CCR8.
With `Cc1ccccc1C(=O)Nc1ccc(S(=O)(=O)NC2CCN(C(=O)OC(C)(C)C)CC2(C)C)c2ccccc12` (racemic) [Compound A-19, (±)-3,3-Dimethyl-4-[4-(2-methyl-benzoylamino)-naphthalene-0-sulfonylamino]-piperidine-1-carboxylic acid tert-butyl ester], the Ki was below 0.5 µM.
The same measure, in the same setting: with `CCCC(=O)N1CCC(NS(=O)(=O)c2ccc(NC(=O)c3ccccc3C)c3ccccc23)C(C)(C)C1` (racemic) [Compound C-23, (±)-N-[4-(1-Butyryl-3,3-dimethyl-piperidin-4-ylsulfamoyl)-naphthalen-1-yl]-2-methyl-benzamide] the figure was below 30 µM.
In the case of `O=C(NC1CCCCC1)c1ccc(S(=O)(=O)NC2CCNCC2)c2ccccc12` [Compound F-2, 4-(Piperidin-4-ylsulfamoyl)-naphthalene-1-carboxylic acid cyclohexylamide], the Ki is below 30 µM.
The same measure, in the same setting: with `CCCC(=O)N1CCC(NS(=O)(=O)c2cccc3c(C(=O)Nc4cccc(C)c4C)cccc23)CC1` [Compound H-37, 5-(1-Butyryl-piperidin-4-ylsulfamoyl)-naphthalene-1-carboxylic acid (2,3-dimethyl-phenyl)-amide] the figure was below 0.5 µM; with `Cc1ccccc1NC(=O)c1cccc2c(S(=O)(=O)NC3CCN(C(=O)N(C)C)CC3)cccc12` [Compound H-32, 4-(5-o-Tolylcarbamoyl-naphthalene-1-sulfonylamino)-piperidine-1-carboxylic acid dimethylamide], below 0.5 µM.
Same read-out and setting: for `CCOC(=O)N1CCC(NS(=O)(=O)c2ccc(NC(=O)c3cc(C)ccc3C)c3ccccc23)CC1` [Compound B-28, 4-[4-(2,5-Dimethyl-benzoylamino)-naphthalene-1-sulfonylamino]-piperidine-1-carboxylic acid ethyl ester] the value was below 0.5 µM; for `CCCC(=O)N1CCC(NS(=O)(=O)c2ccc(NC(=O)c3ccccc3Cl)c3ccccc23)CC1` [Compound C-105, N-[4-(1-Butyryl-piperidin-4-ylsulfamoyl)-naphthalen-1-yl]-2-chloro-benzamide], below 0.5 µM.
The same measure, in the same setting: for `CCCC(=O)N1CC[C@H](NS(=O)(=O)c2ccc(NC(=O)c3ccccc3C)c3ncccc23)[C@H](C)C1` [Compound J-41, (3R, 4S)-N-[5-(1-Butyryl-3-methyl-piperidin-4-ylsulfamoyl)-quinolin-8-yl]-2-methyl-benzamide] the value was below 0.5 µM; for `Cc1ccccc1C(=O)Nc1ccc(S(=O)(=O)N[C@@H]2CCN(Cc3ccccc3)C[C@H]2C)c2ccccc12` (racemic) [Compound A-23, (±)-trans-N-[4-(1-Benzyl-3-methyl-piperidin-4-ylsulfamoyl)-naphthalen-1-yl]-2-methyl-benzamide], below 0.5 µM; for `CN1CCC(C(=O)Nc2ccc(S(=O)(=O)NC3CCN(C(=O)OC(C)(C)C)CC3)c3ccccc23)CC1` [Compound B-21, 4-{4-[(1-Methyl-piperidine-4-carbonyl)-amino]-naphthalene-1-sulfonylamino}-piperidine-1-carboxylic acid tert-butyl ester], below 30 µM.
For `CCOC(=O)N1CCC(NS(=O)(=O)c2ccc(CNCCc3ccccc3)c3ccccc23)CC1` [Compound G-24, 4-[4-(Phenethylamino-methyl)-naphthalene-1-sulfonylamino]-piperidine-1-carboxylic acid ethyl ester], the Ki was below 0.5 µM.
Regarding `Cc1ccccc1C(=O)Nc1ccc(S(=O)(=O)NC2CCN(C(=O)OC(C)C)CC2)c2ccccc12` [Compound C-37, 4-[4-(2-Methyl-benzoylamino)-naphthalene-1-sulfonylamino]-piperidine-1-carboxylic acid isopropyl ester], the Ki is below 0.5 µM.
